“Also recorded” adds a separate entry of the source.
How the values were obtained:
[1] = target: human NE transporter (hNET) (Homo sapiens, UniProt P23975); assay: NE transporter competitive binding assay, [3H]nisoxetine; settings: Example 14; read-out: NET Ki
Experimental: (§1) Protocol. […] Bound radioactivity was determined by scintillation spectroscopy. Non-specific binding was defined as the amount of binding that occurred in the presence of 1.0 μM desipramine. The Ki values of the various test compounds were determined using standard methods.
as §1

[2] = target: T1, human serotonin transporter (hSERT) (Homo sapiens, UniProt P31645); assay: 5HT transporter competitive binding assay, [3H]imipramine; settings: Example 14; read-out: SERT Ki
T1 construct: expressed in transfected cells; host or cells: CHO cells (membranes)
T1 sequence (P31645 whole entry): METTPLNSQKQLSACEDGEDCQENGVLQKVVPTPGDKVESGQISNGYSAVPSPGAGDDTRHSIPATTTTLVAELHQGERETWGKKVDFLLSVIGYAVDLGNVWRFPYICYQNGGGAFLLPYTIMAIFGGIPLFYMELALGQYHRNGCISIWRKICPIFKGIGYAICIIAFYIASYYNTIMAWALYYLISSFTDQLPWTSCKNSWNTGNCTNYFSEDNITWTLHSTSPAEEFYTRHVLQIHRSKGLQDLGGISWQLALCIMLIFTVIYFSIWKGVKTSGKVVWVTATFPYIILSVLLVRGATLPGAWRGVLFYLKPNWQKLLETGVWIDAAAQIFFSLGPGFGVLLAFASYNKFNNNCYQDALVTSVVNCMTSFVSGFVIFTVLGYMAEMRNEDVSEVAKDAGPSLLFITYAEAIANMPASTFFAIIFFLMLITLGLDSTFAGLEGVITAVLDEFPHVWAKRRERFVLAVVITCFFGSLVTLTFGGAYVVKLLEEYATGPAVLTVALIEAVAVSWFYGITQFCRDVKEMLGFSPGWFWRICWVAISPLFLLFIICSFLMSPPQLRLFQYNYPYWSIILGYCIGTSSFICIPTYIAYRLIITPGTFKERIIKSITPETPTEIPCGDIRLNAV
Experimental: (§2) Bound radioactivity was determined by scintillation spectroscopy. […] The Ki values of the various test compounds were determined using standard methods.
as §2

[3] = tested on: L5 SNL rats, tactile allodynia; assay: L5-Single Nerve Ligation model of neuropathic pain (von Frey); type: in vivo, rat; settings: 30 mg/kg, i.p.
Experimental: Protocol. […] The test animals were placed in a Plexiglas chamber (10 cm×20 cm×25 cm) and habituated for 15 minutes. The chamber was positioned on top of a mesh screen so that von Frey monofilaments could be presented to the plantar surface of both hindpaws. Measurement of tactile sensitivity for each hindpaw were obtained using the up/down method (Dixon, 1980) with seven Frey monofilaments (0.4, 1, 2, 4, 6, 8 and 15 grams). Each trial started with a von Frey force of 2 grams delivered to the right hindpaw for approximately 1-2 seconds and then the left hindpaw. If there was no withdrawal response, the next higher force was delivered. If there was a response, the next lower force was delivered. This procedure was performed until no response was made at the highest force (15 grams) or until four stimuli were administered following the initial response. Each test group contained 8 animals. The sham-operated control group, which were operated on but not subject to nerve ligation, contained 4 animals. All animals were tested at 60 minutes, and 240 minutes, post-administration of test compounds.
The 50% paw withdrawal threshold for each paw was calculated using the following formula: [Xth] log=[vFr] log+ky where [vFr] is the force of the last von Frey used, k=0.2249 which is the average interval (in log units) between the von Frey monofilaments, and y is a value that depends upon the pattern of withdrawal responses (Dixon, 1980). […] Testing for tactile sensitivity was performed twice and the mean 50% withdrawal value assigned as the tactile sensitivity for the right and left paws for each animal.
The E-10-OH-NT compounds were administered as either a maleate or succinate salt. AT was administered as a hydrochloride salt. Dosage amounts are based on the amount of free base. The test animals were placed in a Plexiglas chamber (10 cm×20 cm×25 cm) and habituated for 15 minutes. The chamber was positioned on top of a mesh screen so that von Frey monofilaments could be presented to the plantar surface of both hindpaws. Measurement of tactile sensitivity for each hindpaw were obtained using the up/down method (Dixon, 1980) with seven Frey monofilaments (0.4, 1, 2, 4, 6, 8 and 15 grams). Each trial started with a von Frey force of 2 grams delivered to the right hindpaw for approximately 1-2 seconds and then the left hindpaw. If there was no withdrawal response, the next higher force was delivered. If there was a response, the next lower force was delivered. This procedure was performed until no response was made at the highest force (15 grams) or until four stimuli were administered following the initial response. Each test group contained 8 animals. The sham-operated control group, which were operated on but not subject to nerve ligation, contained 4 animals. […]

NE uptake, mouse atria = target: T2, NE uptake, mouse atria (Mus musculus, UniProt O55192); settings: Hyttel, 1980; cited from earlier work
T2 construct: host or cells: mouse atria
T2 sequence (O55192 whole entry): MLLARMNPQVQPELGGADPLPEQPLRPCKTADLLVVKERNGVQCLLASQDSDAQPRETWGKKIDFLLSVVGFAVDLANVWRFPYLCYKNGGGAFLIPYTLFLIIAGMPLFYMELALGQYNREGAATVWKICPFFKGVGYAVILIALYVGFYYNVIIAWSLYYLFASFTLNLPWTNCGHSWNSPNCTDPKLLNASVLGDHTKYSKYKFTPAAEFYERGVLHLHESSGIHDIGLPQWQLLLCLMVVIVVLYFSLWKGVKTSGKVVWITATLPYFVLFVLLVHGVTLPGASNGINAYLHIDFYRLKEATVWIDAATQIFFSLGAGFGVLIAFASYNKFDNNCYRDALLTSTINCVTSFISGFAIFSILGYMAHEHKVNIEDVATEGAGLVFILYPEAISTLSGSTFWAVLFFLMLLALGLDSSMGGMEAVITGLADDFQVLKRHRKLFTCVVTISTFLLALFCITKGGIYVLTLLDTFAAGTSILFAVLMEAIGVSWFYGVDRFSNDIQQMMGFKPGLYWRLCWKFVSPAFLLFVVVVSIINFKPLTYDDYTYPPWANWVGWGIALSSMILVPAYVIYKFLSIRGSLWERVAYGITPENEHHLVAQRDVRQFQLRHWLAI

[4] = Hygroscopicity of salt form; type: physicochemical; settings: crystalline salt
[5] = tested on: acetic acid-induced abdominal constriction; settings: cited from earlier work
pain intensity = settings: study completers; Atkinson et al., 1999; cited from earlier work

Chain of human NE transporter (hNET) (P23975 whole entry): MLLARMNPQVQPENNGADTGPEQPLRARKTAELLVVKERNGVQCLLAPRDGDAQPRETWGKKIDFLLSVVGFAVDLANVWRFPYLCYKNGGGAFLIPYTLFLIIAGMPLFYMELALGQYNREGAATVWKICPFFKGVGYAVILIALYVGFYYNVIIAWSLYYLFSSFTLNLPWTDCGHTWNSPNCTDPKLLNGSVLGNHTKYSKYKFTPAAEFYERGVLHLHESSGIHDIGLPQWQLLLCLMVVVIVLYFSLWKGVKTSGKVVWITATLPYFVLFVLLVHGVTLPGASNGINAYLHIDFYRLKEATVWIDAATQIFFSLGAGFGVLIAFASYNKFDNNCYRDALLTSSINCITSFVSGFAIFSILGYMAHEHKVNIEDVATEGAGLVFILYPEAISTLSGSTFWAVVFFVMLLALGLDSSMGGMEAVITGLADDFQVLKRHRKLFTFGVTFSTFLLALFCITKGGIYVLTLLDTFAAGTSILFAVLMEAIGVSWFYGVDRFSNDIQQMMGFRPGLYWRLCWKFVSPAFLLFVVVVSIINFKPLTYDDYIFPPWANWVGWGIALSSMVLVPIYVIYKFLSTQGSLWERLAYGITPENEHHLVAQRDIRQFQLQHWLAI

SMILES: CNCC/C=C1\c2ccccc2CC(O)c2ccccc21 (racemic) [(±)-E-10-OH-NT, (S/R)-5-[3-Methylamino-prop-(E)-ylidene]-10,11-dihydro-5H-dibenzo[a,d]cyclohepten-10-ol, reference compound]
- Ki [1]: 51 nM
- Ki [2]: 420 nM
- antiallodynic activity [3]: comparable to that of the vehicle-only control
- IC50 (NE uptake, mouse atria): 130 nM

SMILES: CNCC/C=C1\c2ccccc2CC(O)c2ccccc21.O=C(O)CCC(=O)O (single isomer, unassigned; (-)) [(−)-E-10-OH-NT Succinate]
- hygroscopicity [4]: non-hydroscopic; also recorded: non-hygroscopic

SMILES: COC1(C2=NCCN2)COc2ccccc2O1 (stereo not drawn) [RX821002, [2-(2-methoxy-1, -4-benzodioxan-2-yl)-2-imidazoline]]
- inhibition of acetic acid-induced abdominal constriction ([5]; doses up to 3 mg/kg, subcutaneously, by itself): did not produce significant inhibition

SMILES: Clc1cccc(Cl)c1N=C1NCCN1 [clonidine]
- protection against acetic acid-induced abdominal constriction ([5]; highest dose level, 1.0 mg/kg (s.c.)): 100%

SMILES: CNCCCC12CCC(c3ccccc31)c1ccccc12 [maprotiline]
- reduction in pain intensity (pain intensity): 45%

SMILES: Fc1ccc([C@@H]2CCNC[C@H]2COc2ccc3c(c2)OCO3)cc1 [paroxetine]
- reduction in pain intensity (pain intensity): 26%

— patent US20120178815A1, “Compositions of (-)-E-10-OH-NT and Methods for Their Synthesis and Use” (Adolor Corporation, priority 2007, published 2012)
